Test results reported in PubChem BioAssay (NCI).
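Following 48 hours of exposure in 96-well plates, responses at five concentrations were used to interpolate endpoints linearly. Definition used: TGI = concentration required for complete inhibition of growth.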

Experiments:
Assay in all cases: growth of human tumour cells (NCI), 48 h
A549 NSCLC = system: A549 NSCLC
HOP-62 NSCLC = system: HOP-62 NSCLC
ACHN renal = system: ACHN renal
PC-3 prostate = system: PC-3 prostate
SNB-75 CNS = system: SNB-75 CNS
SN12C renal = system: SN12C renal
EKVX NSCLC = system: EKVX NSCLC
HCT-15 colon = system: HCT-15 colon
MDA-MB-435 = system: MDA-MB-435
UACC-257 melanoma = system: UACC-257 melanoma
NCI-H226 lung = system: NCI-H226 lung
MALME-3M melanoma = system: MALME-3M melanoma
IGROV1 ovarian = system: IGROV1 ovarian
HCT-116 colon = system: HCT-116 colon
OVCAR-5 ovarian = system: OVCAR-5 ovarian
OVCAR-4 ovarian = system: OVCAR-4 ovarian
SF-268 CNS = system: SF-268 CNS
SK-MEL-5 melanoma = system: SK-MEL-5 melanoma
NCI-H522 lung = system: NCI-H522 lung
SK-OV-3 ovarian = system: SK-OV-3 ovarian
BT-549 breast = system: BT-549 breast
TK-10 renal = system: TK-10 renal
LOX IMVI melanoma = system: LOX IMVI melanoma
SNB-19 CNS = system: SNB-19 CNS
MOLT-4 leukemia = system: MOLT-4 leukemia
SW-620 colon = system: SW-620 colon
RXF 393 renal = system: RXF 393 renal
HCC-2998 colon = system: HCC-2998 colon
SK-MEL-2 melanoma = system: SK-MEL-2 melanoma
NCI/ADR-RES ovarian = system: NCI/ADR-RES ovarian
SF-539 CNS = system: SF-539 CNS
HS 578T breast = system: HS 578T breast
SK-MEL-28 melanoma = system: SK-MEL-28 melanoma
CAKI-1 renal = system: CAKI-1 renal
MCF7 breast = system: MCF7 breast
COLO 205 colon = system: COLO 205 colon
KM12 colon = system: KM12 colon
CCRF-CEM leukemia = system: CCRF-CEM leukemia
HOP-92 NSCLC = system: HOP-92 NSCLC
HT29 colon = system: HT29 colon
M14 melanoma = system: M14 melanoma
RPMI-8226 leukemia = system: RPMI-8226 leukemia
K-562 leukemia = system: K-562 leukemia
A498 renal = system: A498 renal
MDA-N = system: MDA-N
SF-295 CNS = system: SF-295 CNS
OVCAR-8 ovarian = system: OVCAR-8 ovarian
786-0 renal = system: 786-0 renal
NCI-H460 lung = system: NCI-H460 lung
U251 CNS = system: U251 CNS
MDA-MB-231 breast = system: MDA-MB-231 breast
UACC-62 melanoma = system: UACC-62 melanoma
DU-145 prostate = system: DU-145 prostate
UO-31 renal = system: UO-31 renal
HL-60(TB) leukemia = system: HL-60(TB) leukemia
OVCAR-3 ovarian = system: OVCAR-3 ovarian
NCI-H23 lung = system: NCI-H23 lung

CN(C)c1ccc(-c2c(C#N)c(-c3ccccc3)n(NS(=O)(=O)c3ccccc3)c(=O)c2C#N)cc1
TGI (A549 NSCLC): > 100 µM
TGI (HOP-62 NSCLC): > 100 µM
TGI (ACHN renal): > 100 µM
TGI (PC-3 prostate): > 100 µM
TGI (SNB-75 CNS): > 100 µM
TGI (SN12C renal): > 100 µM
TGI (EKVX NSCLC): > 100 µM
TGI (HCT-15 colon): > 100 µM
TGI (MDA-MB-435): > 100 µM
TGI (UACC-257 melanoma): > 100 µM
TGI (NCI-H226 lung): > 100 µM
TGI (MALME-3M melanoma): > 100 µM
TGI (IGROV1 ovarian): > 100 µM
TGI (HCT-116 colon): > 100 µM
TGI (OVCAR-5 ovarian): > 100 µM
TGI (OVCAR-4 ovarian): > 100 µM
TGI (SF-268 CNS): > 100 µM
TGI (SK-MEL-5 melanoma): 46.8 µM
TGI (NCI-H522 lung): > 100 µM
TGI (SK-OV-3 ovarian): > 100 µM
TGI (BT-549 breast): > 100 µM
TGI (TK-10 renal): > 100 µM
TGI (LOX IMVI melanoma): > 100 µM
TGI (SNB-19 CNS): 83.5 µM
TGI (MOLT-4 leukemia): 55.8 µM
TGI (SW-620 colon): > 100 µM
TGI (RXF 393 renal): > 100 µM
TGI (HCC-2998 colon): > 100 µM
TGI (SK-MEL-2 melanoma): > 100 µM
TGI (NCI/ADR-RES ovarian): > 100 µM
TGI (SF-539 CNS): > 100 µM
TGI (HS 578T breast): > 100 µM
TGI (SK-MEL-28 melanoma): > 100 µM
TGI (CAKI-1 renal): > 100 µM
TGI (MCF7 breast): > 100 µM
TGI (COLO 205 colon): > 100 µM
TGI (KM12 colon): > 100 µM
TGI (CCRF-CEM leukemia): 83.5 µM
TGI (HOP-92 NSCLC): > 100 µM
TGI (HT29 colon): > 100 µM
TGI (M14 melanoma): > 100 µM
TGI (RPMI-8226 leukemia): 48.6 µM
TGI (K-562 leukemia): > 100 µM
TGI (A498 renal): > 100 µM
TGI (MDA-N): > 100 µM
TGI (SF-295 CNS): > 100 µM
TGI (OVCAR-8 ovarian): > 100 µM
TGI (786-0 renal): > 100 µM
TGI (NCI-H460 lung): > 100 µM
TGI (U251 CNS): > 100 µM
TGI (MDA-MB-231 breast): > 100 µM
TGI (UACC-62 melanoma): > 100 µM

NC(=O)N/N=C(\Cc1cc(=O)oc2cc(O)ccc12)C(=O)Nc1ccccc1C(N)=O
TGI (A549 NSCLC): > 100 µM
TGI (HOP-62 NSCLC): > 100 µM
TGI (ACHN renal): > 100 µM
TGI (PC-3 prostate): > 100 µM
TGI (SNB-75 CNS): > 100 µM
TGI (SN12C renal): > 100 µM
TGI (EKVX NSCLC): > 100 µM
TGI (HCT-15 colon): > 100 µM
TGI (MDA-MB-435): > 100 µM
TGI (UACC-257 melanoma): > 100 µM
TGI (NCI-H226 lung): > 100 µM
TGI (IGROV1 ovarian): > 100 µM
TGI (HCT-116 colon): > 100 µM
TGI (OVCAR-5 ovarian): > 100 µM
TGI (OVCAR-4 ovarian): > 100 µM
TGI (SF-268 CNS): > 100 µM
TGI (SK-MEL-5 melanoma): > 100 µM
TGI (NCI-H522 lung): > 100 µM
TGI (DU-145 prostate): > 100 µM
TGI (SK-OV-3 ovarian): > 100 µM
TGI (BT-549 breast): > 100 µM
TGI (TK-10 renal): > 100 µM
TGI (LOX IMVI melanoma): > 100 µM
TGI (SNB-19 CNS): > 100 µM
TGI (MOLT-4 leukemia): > 100 µM
TGI (SW-620 colon): > 100 µM
TGI (UO-31 renal): > 100 µM
TGI (RXF 393 renal): > 100 µM
TGI (HCC-2998 colon): > 100 µM
TGI (SK-MEL-2 melanoma): > 100 µM
TGI (NCI/ADR-RES ovarian): > 100 µM
TGI (SF-539 CNS): > 100 µM
TGI (HS 578T breast): > 100 µM
TGI (SK-MEL-28 melanoma): > 100 µM
TGI (CAKI-1 renal): > 100 µM
TGI (MCF7 breast): > 100 µM
TGI (COLO 205 colon): > 100 µM
TGI (HL-60(TB) leukemia): > 100 µM
TGI (KM12 colon): > 100 µM
TGI (OVCAR-3 ovarian): > 100 µM
TGI (CCRF-CEM leukemia): > 100 µM
TGI (HOP-92 NSCLC): > 100 µM
TGI (HT29 colon): > 100 µM
TGI (M14 melanoma): > 100 µM
TGI (MDA-N): > 100 µM
TGI (SF-295 CNS): > 100 µM
TGI (OVCAR-8 ovarian): > 100 µM
TGI (786-0 renal): > 100 µM
TGI (NCI-H460 lung): > 100 µM
TGI (U251 CNS): > 100 µM
TGI (MDA-MB-231 breast): > 100 µM
TGI (UACC-62 melanoma): > 100 µM
TGI (NCI-H23 lung): > 100 µM
